From ChEMBL document CHEMBL4613212, “Insights of synthetic analogues of anti-leprosy agents” (Bioorg Med Chem, 2019)

Experiments:
[1] = tested on: Mycobacterium tuberculosis; experiment: Antitubercular activity against Mycobacterium tuberculosis H37Rv ATCC 27294 assessed as growth inhibition at 12.5 ug/ml by microplate alamar blue assay relative to control; format: functional
[2] = Selectivity index, ratio of IC50 for African green monkey Vero cells to MIC for antitubercular activity against Mycobacterium tuberculosis H37Rv; format: toxicity; details: vero
Vero = experiment: Cytotoxicity against African green monkey Vero cells incubated for 72 hrs by MTT assay; format: cell-based, Chlorocebus sabaeus
[3] = tested on: Mycobacterium tuberculosis; experiment: Antitubercular activity against Mycobacterium tuberculosis H37Rv ATCC 27294 assessed as inhibition of [3H]-thymidine incorporation relative to control; format: functional
[4] = tested on: Mycobacterium tuberculosis; experiment: Antimycobacterial activity against Mycobacterium tuberculosis H37Rv infected in CF-1 mouse assessed as change in survival time at 6 mg/kg administrated daily for 14 days with food relative to control; format: functional
[5] = tested on: Mycobacterium tuberculosis; experiment: Antimycobacterial activity against Mycobacterium tuberculosis H37Rv infected in CF-1 mouse assessed as change in survival time at 2 mg/kg administrated daily for 14 days with food relative to control; format: functional
[6] = tested on: Mycobacterium tuberculosis; experiment: Antimycobacterial activity against Mycobacterium tuberculosis H37Rv infected in CF-1 mouse assessed as change in survival time at 4 mg/kg administrated daily for 14 days with food relative to control; format: functional
[7] = tested on: Mycobacterium tuberculosis; experiment: Antimycobacterial activity against Mycobacterium tuberculosis H37Rv infected in CF-1 mouse assessed as change in survival time at 850 mg/kg administrated daily for 14 days with food relative to control; format: functional
Mycobacterium leprae [8] = experiment: Antimicrobial activity against Mycobacterium leprae assessed as fractional inhibitory concentration index at 0.375 ug/ml in presence of 0.0125 ug/ml KRM-1648 measured at 4 weeks; format: functional
Mycobacterium leprae [9] = experiment: Antimicrobial activity against Mycobacterium leprae assessed as microbial growth at 0.75 ug/ml in presence of 0.2 ug/ml rifampin measured at 4 weeks (reference value: 147 +/- 19.1%); format: functional
Mycobacterium leprae [10] = experiment: Antimicrobial activity against Mycobacterium leprae assessed as microbial growth at 0.375 ug/ml in presence of 0.0062 ug/ml KRM-1648 measured at 4 weeks (reference value: 147 +/- 19.1%); format: functional
Mycobacterium leprae [11] = experiment: Antimicrobial activity against Mycobacterium leprae assessed as microbial growth at 0.75 ug/ml in presence of 0.1 ug/ml rifampin measured at 4 weeks (reference value: 147 +/- 19.1%); format: functional
Mycobacterium leprae [12] = experiment: Antimicrobial activity against Mycobacterium leprae assessed as fractional inhibitory concentration index at 0.375 ug/ml in presence of 0.05 ug/ml rifabutin measured at 4 weeks; format: functional
Mycobacterium leprae [13] = experiment: Antimicrobial activity against Mycobacterium leprae assessed as fractional inhibitory concentration index at 0.75 ug/ml in presence of 0.2 ug/ml rifampin measured at 4 weeks; format: functional
Mycobacterium leprae [14] = experiment: Antimicrobial activity against Mycobacterium leprae assessed as microbial growth at 0.375 ug/ml in presence of 0.05 ug/ml rifabutin measured at 4 weeks (reference value: 147 +/- 19.1%); format: functional
Mycobacterium leprae [15] = experiment: Antimicrobial activity against Mycobacterium leprae assessed as microbial growth at 0.375 ug/ml in presence of 0.025 ug/ml rifabutin measured at 4 weeks (reference value: 147 +/- 19.1%); format: functional
Mycobacterium leprae [16] = experiment: Antimicrobial activity against Mycobacterium leprae assessed as microbial growth at 0.375 ug/ml in presence of 0.0125 ug/ml KRM-1648 measured at 4 weeks (reference value: 147 +/- 19.1%); format: functional

Compound: Clc1nc(-c2ccccc2)c2ncn(Cc3ccccc3)c2n1
- inhibition at 12.5 µg/mL [1]: > 90%
- Selectivity Index [2]: Nd(Insoluble)
- IC50 (Vero): Nd(Insoluble)
- inhibition (INH) [3]: 76%

Compound: Nc1ccc(C(=O)O)c(O)c1 [AMINOSALICYLIC ACID]
- MST [4]: 52 days
- MST [5]: 17 days
- MST [6]: 26 days
- MST [7]: 25 days

Compound: CC1COc2c(N3CCN(C)CC3)c(F)cc3c(=O)c(C(=O)O)cn1c23 (configuration not stated) [OFLOXACIN]
- fractional inhibitory concentration index (FICI) (Mycobacterium leprae [8]): 0.5
- Activity (Mycobacterium leprae [9]): 0%
- Activity (Mycobacterium leprae [10]): 124%
- Activity (Mycobacterium leprae [11]): 72%
- fractional inhibitory concentration index (FICI) (Mycobacterium leprae [12]): 0.5
- fractional inhibitory concentration index (FICI) (Mycobacterium leprae [13]): 1
- Activity (Mycobacterium leprae [14]): 0%
- Activity (Mycobacterium leprae [15]): 121%
- Activity (Mycobacterium leprae [16]): 0%
